“And” between values parts separate entries of the source, which are not always exact repeats. Equal entries are not always repeated. Toxic doses and inconclusive results are not listed. The calls were made as follows: active = survival T/C of 150% or more; inactive = T/C below 125% in these data.
System: P388 leukemia ip, CD2F1 mice, survival T/C
Assay: NCI In Vivo Anticancer Drug Screen. Data for tumor model P388 Leukemia (intraperitoneal) in CD2F1 (CDF1) mice
Details: endpoint: median survival time, higher = longer survival
Summary of the method: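 Mice carrying the transplanted tumor received test compound or vehicle. Survival was recorded in each group, and the value is the treated-group measurement divided by that of the vehicle-treated control group.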

[1] = dose: 12.0 mg/kg/injection, schedule: Q01DX009 (ip), vehicle: Klucel (hydroxypropylcellulose) (HPC)
[2] = dose: 24.0 mg/kg/injection, schedule: Q01DX009 (ip), vehicle: Klucel (hydroxypropylcellulose) (HPC)
[3] = dose: 60.0 mg/kg/injection, schedule: Q01DX005 (ip), vehicle: saline with Tween-80
[4] = dose: 120.0 mg/kg/injection, schedule: Q01DX005 (ip), vehicle: saline with Tween-80
[5] = dose: 240.0 mg/kg/injection, schedule: Q01DX005 (ip), vehicle: saline with Tween-80
[6] = dose: 50.0 mg/kg/injection, schedule: Q01DX005 (ip), vehicle: saline with Tween-80
[7] = dose: 25.0 mg/kg/injection, schedule: Q01DX005 (ip), vehicle: saline with Tween-80
[8] = dose: 50.0 mg/kg/injection, schedule: Q01DX005 (ip), vehicle: Klucel (hydroxypropylcellulose) (HPC)
[9] = dose: 100.0 mg/kg/injection, schedule: Q01DX005 (ip), vehicle: Klucel (hydroxypropylcellulose) (HPC)

Measured: T/C

CC1=C(CCC(=O)O)c2cc3nc(cc4[nH]c(cc4C)cc4[nH]c(cc1n2)cc4C)C(C)(C)C3CCC(=O)O (stereo not given)
inactive: dose: 3.0 mg/kg/injection, schedule: Q01DX009 (ip), vehicle: Klucel (hydroxypropylcellulose) (HPC) 97 % of control | dose: 6.0 mg/kg/injection, schedule: Q01DX009 (ip), vehicle: Klucel (hydroxypropylcellulose) (HPC) 92 % of control | [1] 90 % of control | [2] 87 % of control

CC12CC3OC(=O)C1COC14OC5(C2C1=O)C(O)(CCC1C4CC(O)C2(O)CC=CC(=O)C12C)C(=O)OC35C (stereo not given)
inactive: [1] 94 % of control | [2] 110 % of control | dose: 48.0 mg/kg/injection, schedule: Q01DX009 (ip), vehicle: Klucel (hydroxypropylcellulose) (HPC) 109 % of control

CCCCCCCCCCCC(CCCC)CCCCCCCCCC (stereo not given)
inactive: dose: 50.0 mg/kg/injection, schedule: Q01DX001 (ip), vehicle: saline sonified 100 % of control | dose: 100.0 mg/kg/injection, schedule: Q01DX001 (ip), vehicle: saline sonified 104 % of control | dose: 200.0 mg/kg/injection, schedule: Q01DX001 (ip), vehicle: saline sonified 100 % of control

Cc1cccc(OCCOC(=O)Nc2cccc(C(F)(F)F)c2)c1
inactive: [3] 99 % of control | [4] 96 % of control | [5] 96 % of control

COc1cc([C@H]2c3c(cc(OC)c(OC)c3OC)CC3COC(=O)[C@@H]32)cc(Br)c1O (stereo not given in full)
inactive: [3] 101 % of control | [4] 95 % of control | [5] 98 % of control

O=C1c2cccc(NCC3CO3)c2C(=O)c2cccc(NCC3CO3)c21 (stereo not given)
inactive: dose: 0.75 mg/kg/injection, schedule: Q01DX005 (ip), vehicle: Klucel (hydroxypropylcellulose) (HPC) 99 % of control | dose: 1.5 mg/kg/injection, schedule: Q01DX005 (ip), vehicle: Klucel (hydroxypropylcellulose) (HPC) 107 % of control | dose: 3.0 mg/kg/injection, schedule: Q01DX005 (ip), vehicle: Klucel (hydroxypropylcellulose) (HPC) 100 % of control | dose: 6.0 mg/kg/injection, schedule: Q01DX005 (ip), vehicle: Klucel (hydroxypropylcellulose) (HPC) 96 % of control

O=CNC(Cc1ccccc1)C(=O)O (stereo not given)
inactive: [6] 94 % of control | dose: 100.0 mg/kg/injection, schedule: Q01DX005 (ip), vehicle: saline with Tween-80 102 % of control

COC(=O)c1ccc(-c2ccccc2)cc1
inactive: dose: 25.0 mg/kg/injection, schedule: Q01DX009 (ip), vehicle: Klucel (hydroxypropylcellulose) (HPC) 89 % of control | dose: 50.0 mg/kg/injection, schedule: Q01DX009 (ip), vehicle: Klucel (hydroxypropylcellulose) (HPC) 89 % of control | dose: 100.0 mg/kg/injection, schedule: Q01DX009 (ip), vehicle: Klucel (hydroxypropylcellulose) (HPC) 90 % of control | dose: 200.0 mg/kg/injection, schedule: Q01DX009 (ip), vehicle: Klucel (hydroxypropylcellulose) (HPC) 86 % of control

COc1ccc(NC(=O)/N=C2\CN(C(=O)c3c(F)cccc3F)C(=O)N2c2ccc(OC)cc2)cc1
inactive: [3] 87 % of control | [4] 89 % of control | [5] 103 % of control

C/C=C/CC1(C)N=C1c1ccccc1 (stereo not given)
inactive: dose: 100.0 mg/kg/injection, schedule: Q01DX001 (ip), vehicle: Klucel (hydroxypropylcellulose) (HPC) 99 % of control | dose: 200.0 mg/kg/injection, schedule: Q01DX001 (ip), vehicle: Klucel (hydroxypropylcellulose) (HPC) 99 % of control | dose: 400.0 mg/kg/injection, schedule: Q01DX001 (ip), vehicle: Klucel (hydroxypropylcellulose) (HPC) 102 % of control

COc1cc2c[n+](C)c3ccccc3c2cc1OC
inactive: dose: 12.5 mg/kg/injection, schedule: Q01DX009 (ip), vehicle: water 112 % of control and 115 % of control | dose: 25.0 mg/kg/injection, schedule: Q01DX009 (ip), vehicle: water 124 % of control | dose: 100.0 mg/kg/injection, schedule: Q01DX009 (ip), vehicle: water 105 % of control

CC(C)c1cccc(C(C)C)c1Oc1ccc([N+](=O)[O-])cc1[N+](=O)[O-]
inactive: dose: 50.0 mg/kg/injection, schedule: Q04DX003 (ip), vehicle: saline with Tween-80 94 % of control | dose: 100.0 mg/kg/injection, schedule: Q04DX003 (ip), vehicle: saline with Tween-80 93 % of control | dose: 200.0 mg/kg/injection, schedule: Q04DX003 (ip), vehicle: saline with Tween-80 92 % of control | dose: 400.0 mg/kg/injection, schedule: Q04DX003 (ip), vehicle: saline with Tween-80 90 % of control

CCN(CCNc1ccc(C)c2sc3cc(Cl)ccc3c(=O)c12)CC(C)(C)O
inactive: dose: 12.5 mg/kg/injection, schedule: Q01DX005 (ip), vehicle: saline with Tween-80 95 % of control | [7] 92 % of control | [6] 88 % of control and 97 % of control | dose: 200.0 mg/kg/injection, schedule: Q01DX005 (ip), vehicle: saline with Tween-80 95 % of control

C=Cn1c([N+](=O)[O-])cnc1/C=C/c1ccc(C(=O)NC(C)CC)cc1 (stereo not given)
inactive: dose: 100.0 mg/kg/injection, schedule: Q04DX002 (ip), vehicle: gum acacia 93 % of control | dose: 200.0 mg/kg/injection, schedule: Q04DX002 (ip), vehicle: gum acacia 91 % of control | dose: 400.0 mg/kg/injection, schedule: Q04DX002 (ip), vehicle: gum acacia 96 % of control

CCN(CC)CCOC(=O)C(OCCC(C)C)(c1ccccc1)c1ccccc1
inactive: [8] 113 % of control | [9] 113 % of control

NC(=S)N/N=C/c1nc2ccccc2c(=O)n1-c1ccc(Cl)cc1
inactive: dose: 100.0 mg/kg/injection, schedule: Q04DX002 (ip), vehicle: saline with Tween-80 104 % of control | dose: 200.0 mg/kg/injection, schedule: Q04DX002 (ip), vehicle: saline with Tween-80 95 % of control | dose: 400.0 mg/kg/injection, schedule: Q04DX002 (ip), vehicle: saline with Tween-80 98 % of control

CC1CC(=O)Nc2cc(C(F)(F)F)ccc2N1 (stereo not given)
inactive: [8] 95 % of control | [9] 99 % of control | dose: 200.0 mg/kg/injection, schedule: Q01DX005 (ip), vehicle: Klucel (hydroxypropylcellulose) (HPC) 93 % of control

CC(C(=O)O)N1CN(/N=C/c2ccc(Cl)cc2Cl)C(N)=NC1(O)CCl (stereo not given)
inactive: dose: 60.0 mg/kg/injection, schedule: Q01DX005 (ip), vehicle: saline 101 % of control | dose: 120.0 mg/kg/injection, schedule: Q01DX005 (ip), vehicle: saline 101 % of control | dose: 240.0 mg/kg/injection, schedule: Q01DX005 (ip), vehicle: saline 115 % of control

CCOC(=O)Nc1cc2c(c(N)n1)N=C(c1ccccc1)CO2
inactive: [7] 102 % of control and 112 % of control

O=C(CNC(=O)NCc1ccco1)NNC(=O)Nc1ccc(Cl)c([N+](=O)[O-])c1
inactive: [3] 95 % of control | [4] 94 % of control | [5] 97 % of control

CC(=O)OC(C)(C)/C=C/C(=O)[C@](C)(O)[C@H]1[C@H](O)C[C@@]2(C)[C@@H]3CC=C4[C@@H](CC[C@H](O)C4(C)C)[C@]3(CO)C(=O)C[C@]12C
inactive: dose: 0.6 mg/kg/injection, schedule: Q01DX009 (ip), vehicle: saline sonified 100 % of control | dose: 1.2 mg/kg/injection, schedule: Q01DX009 (ip), vehicle: saline sonified 100 % of control | dose: 2.4 mg/kg/injection, schedule: Q01DX009 (ip), vehicle: saline sonified 116 % of control

OCC1OC(c2ccc(O)cc2O)C(O)C1O (stereo not given)
inactive: dose: 50.0 mg/kg/injection, schedule: Q01DX009 (ip), vehicle: saline 102 % of control | dose: 100.0 mg/kg/injection, schedule: Q01DX009 (ip), vehicle: saline 96 % of control | dose: 100.0 mg/kg/injection, schedule: Q04DX003 (ip), vehicle: saline 95 % of control | dose: 200.0 mg/kg/injection, schedule: Q01DX009 (ip), vehicle: saline 105 % of control | dose: 200.0 mg/kg/injection, schedule: Q04DX003 (ip), vehicle: saline 98 % of control | dose: 400.0 mg/kg/injection, schedule: Q04DX003 (ip), vehicle: saline 95 % of control
